Laboratory results reported in the supplement of paper PMC11208160.

Assay: recombinant UMI read abundance after kanamycin selection (control-corrected) (log10(CPM+1)); higher = more efficient recombination; extreme values may be limits of the assay; sequences stand for … in AGTGCAGAGAAAATCGGCCAGTTTTCTCTGCCTGCAGTCCGCATGCCGTGGGACCCCTTGGGTTCTAACCTGTTGCCTAGATTTATGCAGCGGACTGCCTTTCTCCCAAAGTGATAAACCGG…AGGTTGGTTTCACT; site = the 11-nt donor
Procedure, shortened: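 In a pooled Escherichia coli screen for the IS621 bridge recombinase, donor and donor-binding-loop pairs were each placed with a 12-nt UMI on a plasmid bearing a promoterless kanamycin gene. This library was co-electroporated with a target plasmid encoding a fixed target and T7-inducible recombinase, and cells were plated either on IPTG (0.07 mM) plus kanamycin or without selection, in two replicates each. Recombinant UMIs were PCR-amplified across the donor–target junction and sequenced, and counts were converted to CPM, averaged over replicates, scaled by control-derived factors and reported as log10(CPM+1).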
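Note: IS621 bridge recombinase in Escherichia coli cells against a fixed T5 target plasmid.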

| Sequence | recombinant UMI read abundance (log10) |
| --- | --- |
| CACTCCTCATGGACCGGTTTTCCCGGTAATCCGTATTTGCA (site CACTCCTCTAG) | 0.743 |
| CACTCCTCATGGACCGGTTTTCCCGGTAATCCGTATTTGCA (site CACTCCTCTCG) | 1.09 |
| CACTCCTCATGGACCGGTTTTCCCGGTAATCCGTATTTGCA (site CACTCCTCTGG) | 1.21 |
| CACTCCTCATGGACCGGTTTTCCCGGTAATCCGTATTTGCA (site CACTCCTCTTG) | 2.98 |
| CACTCCTCATGGACCGGTTTTCCCGGTAATCCGTATTTGCC (site AACTCCTCTGG) | 0.563 |
| CACTCCTCATGGACCGGTTTTCCCGGTAATCCGTATTTGCC (site CAATCCTCTGG) | 0.883 |
| CACTCCTCATGGACCGGTTTTCCCGGTAATCCGTATTTGCC (site CACACCTCTGG) | 1.79 |
| CACTCCTCATGGACCGGTTTTCCCGGTAATCCGTATTTGCC (site CACCCCTCTGG) | 2.8 |
| CACTCCTCATGGACCGGTTTTCCCGGTAATCCGTATTTGCC (site CACGCCTCTGG) | 0.524 |
| CACTCCTCATGGACCGGTTTTCCCGGTAATCCGTATTTGCC (site CACTACTCTGG) | 1.17 |
| CACTCCTCATGGACCGGTTTTCCCGGTAATCCGTATTTGCC (site CACTCATCTGG) | 0.425 |
| CACTCCTCATGGACCGGTTTTCCCGGTAATCCGTATTTGCC (site CACTCCACTGG) | 0.838 |
| CACTCCTCATGGACCGGTTTTCCCGGTAATCCGTATTTGCC (site CACTCCCCTGG) | 0.105 |
| CACTCCTCATGGACCGGTTTTCCCGGTAATCCGTATTTGCC (site CACTCCGCTGG) | 0.0071 |
| CACTCCTCATGGACCGGTTTTCCCGGTAATCCGTATTTGCC (site CACTCCTCTAG) | 1.36 |
| CACTCCTCATGGACCGGTTTTCCCGGTAATCCGTATTTGCC (site CACTCCTCTCG) | 0.00305 |
| CACTCCTCATGGACCGGTTTTCCCGGTAATCCGTATTTGCC (site CACTCCTCTGA) | 0.906 |
| CACTCCTCATGGACCGGTTTTCCCGGTAATCCGTATTTGCC (site CACTCCTCTGC) | 0.0424 |
| CACTCCTCATGGACCGGTTTTCCCGGTAATCCGTATTTGCC (site CACTCCTCTGG) | 3.11 |
| CACTCCTCATGGACCGGTTTTCCCGGTAATCCGTATTTGCC (site CACTCCTCTGT) | 2.74 |
| CACTCCTCATGGACCGGTTTTCCCGGTAATCCGTATTTGCC (site CACTCCTCTTG) | 2.48 |
| CACTCCTCATGGACCGGTTTTCCCGGTAATCCGTATTTGCC (site CACTCGTCTGG) | 0 |
| CACTCCTCATGGACCGGTTTTCCCGGTAATCCGTATTTGCC (site CACTCTTCTGG) | 0 |

| Sequence | recombinant UMI read abundance (log10) |
| --- | --- |
| CACTCCTCATGGACCGGTTTTCCCGGTAATCCGTATTTGCC (site CACTGCTCTGG) | 0.00619 |
| CACTCCTCATGGACCGGTTTTCCCGGTAATCCGTATTTGCC (site CACTTCTCTGG) | 0 |
| CACTCCTCATGGACCGGTTTTCCCGGTAATCCGTATTTGCC (site CAGTCCTCTGG) | 1.2 |
| CACTCCTCATGGACCGGTTTTCCCGGTAATCCGTATTTGCC (site CATTCCTCTGG) | 1.62 |
| CACTCCTCATGGACCGGTTTTCCCGGTAATCCGTATTTGCC (site CCCTCCTCTGG) | 0.97 |
| CACTCCTCATGGACCGGTTTTCCCGGTAATCCGTATTTGCC (site CGCTCCTCTGG) | 1.95 |
| CACTCCTCATGGACCGGTTTTCCCGGTAATCCGTATTTGCC (site CTCTCCTCTGG) | 2.29 |
| CACTCCTCATGGACCGGTTTTCCCGGTAATCCGTATTTGCC (site GACTCCTCTGG) | 0 |
| CACTCCTCATGGACCGGTTTTCCCGGTAATCCGTATTTGCC (site TACTCCTCTGG) | 1.39 |
| CACTCCTCATGGACCGGTTTTCCCGGTAATCCGTATTTGCG (site CACTCCTCTAG) | 1.11 |
| CACTCCTCATGGACCGGTTTTCCCGGTAATCCGTATTTGCG (site CACTCCTCTCG) | 1.71 |
| CACTCCTCATGGACCGGTTTTCCCGGTAATCCGTATTTGCG (site CACTCCTCTGG) | 0 |
| CACTCCTCATGGACCGGTTTTCCCGGTAATCCGTATTTGCG (site CACTCCTCTTG) | 2.29 |
| CACTCCTCATGGACCGGTTTTCCCGGTAATCCGTATTTGGC (site CACTCCTCTGA) | 0.526 |
| CACTCCTCATGGACCGGTTTTCCCGGTAATCCGTATTTGGC (site CACTCCTCTGC) | 2.75 |
| CACTCCTCATGGACCGGTTTTCCCGGTAATCCGTATTTGGC (site CACTCCTCTGG) | 0.943 |
| CACTCCTCATGGACCGGTTTTCCCGGTAATCCGTATTTGGC (site CACTCCTCTGT) | 2.45 |
| CACTGGGCATGGACCGGTTTTCCCGGTAATCCGTATTTGGA (site CACTAGGCTTC) | 0.812 |
| CACTGGGCATGGACCGGTTTTCCCGGTAATCCGTATTTGGA (site CACTCGGCTTC) | 0.0182 |
| CACTGGGCATGGACCGGTTTTCCCGGTAATCCGTATTTGGA (site CACTGGGCTTC) | 1.12 |
| CACTGGGCATGGACCGGTTTTCCCGGTAATCCGTATTTGGA (site CACTTGGCTTC) | 0.0159 |
| CACTTAACATGGACCGGTTTTCCCGGTAATCCGTATTTGCC (site CACTTAACTGG) | 0.774 |
| CACTTCCCATGGACCGGTTTTCCCGGTAATCCGTATTTGCT (site CAATTCCCTAG) | 0 |

| Sequence | recombinant UMI read abundance (log10) |
| --- | --- |
| CACTTCCCATGGACCGGTTTTCCCGGTAATCCGTATTTGCT (site CACTTCCCTAG) | 0.617 |
| CACTTCCCATGGACCGGTTTTCCCGGTAATCCGTATTTGCT (site CAGTTCCCTAG) | 0.521 |
| CACTTCCCATGGACCGGTTTTCCCGGTAATCCGTATTTGCT (site CATTTCCCTAG) | 0 |
| CACTTCTCATGGACCGGTTTTCCCGGTAATCCGTATTTGGG (site CACTTCTCTCC) | 0.00463 |
| CACTTCTCATGGACCGGTTTTCCCGGTAATCCGTATTTGGG (site CCCTTCTCTCC) | 0.00683 |
| CACTTCTCATGGACCGGTTTTCCCGGTAATCCGTATTTGGG (site CGCTTCTCTCC) | 0 |
| CACTTCTCATGGACCGGTTTTCCCGGTAATCCGTATTTGGG (site CTCTTCTCTCC) | 0 |
| CACTTGACATGGACCGGTTTTCCCGGTAATCCGTATTTGCT (site AACTTGACTAG) | 0 |
| CACTTGACATGGACCGGTTTTCCCGGTAATCCGTATTTGCT (site CACTTGACTAG) | 2.31 |
| CACTTGACATGGACCGGTTTTCCCGGTAATCCGTATTTGCT (site GACTTGACTAG) | 0 |
| CACTTGACATGGACCGGTTTTCCCGGTAATCCGTATTTGCT (site TACTTGACTAG) | 0.365 |
| CAGAAGCCATGGACCGGTTTTCCCGGTAATCCGTATTTGGT (site CAGAAGCCTAC) | 0.535 |
| CAGAAGCCATGGACCGGTTTTCCCGGTAATCCGTATTTGTT (site CAGAAGCCTAA) | 1.14 |
| CAGAAGCCATGGACCGGTTTTCCCGGTAATCCGTATTTGTT (site CGGAATCCTAA) | 0 |
| CAGAATACATGGACCGGTTTTCCCGGTAATCCGTATTTGTT (site CAGAATACTAA) | 2.12 |
| CAGAATACATGGACCGGTTTTCCCGGTAATCCGTATTTGTT (site CGGAATCCTAA) | 0 |
| CAGAATTCATGGACCGGTTTTCCCGGTAATCCGTATTTGGA (site CAGAATTCTTC) | 3.34 |
| CAGATACCATGGACCGGTTTTCCCGGTAATCCGTATTTGGA (site CAGATACCTTC) | 0.0326 |
| CAGCACGCATGGACCGGTTTTCCCGGTAATCCGTATTTGCA (site CAGCACGCTTG) | 2.58 |
| CAGCTCACATGGACCGGTTTTCCCGGTAATCCGTATTTGAT (site AAGCTCACTAT) | 0.444 |
| CAGCTCACATGGACCGGTTTTCCCGGTAATCCGTATTTGAT (site CAGCTCACTAT) | 2.31 |
| CAGCTCACATGGACCGGTTTTCCCGGTAATCCGTATTTGAT (site GAGCTCACTAT) | 0.00621 |
